The text below walks through data of US6875761B2 (Eisai Co., Ltd., priority 1997, dated 2005).

Each structure is given as a SMILES string. Structures can show the parent of a compound that is named as a salt.

By melting point is commonly meant the temperature, or range, at which the solid turns liquid. Compound `CCN1CCN(c2nc(-c3ccc(OC)cc3)cc3ccc(F)cc23)CC1` (as salt: hydrochloride) [Example 229, 1-(4-ethylpiperazin-1-yl)-7-fluoro-3-(4-methoxyphenyl)isoquinoline dihydrochloride] showed a melting point of 220 to 225 °C.
Consider `CCN1CCN(c2nc(-c3ccc(OC)cc3)cc3cccc(F)c23)CC1` (as salt: hydrochloride) [Example 233, 1-(1-ethylpiperazin-4-yl)-8-fluoro-3-(4-methoxyphenyl)isoquinoline dihydrochloride], for which the melting point was 222 to 227 °C.
`CCN1CCN(c2nc(-c3ccc(OCCO)cc3)cc3cccc(F)c23)CC1` (as salt: hydrochloride) [Example 234, 1-(1-ethylpiperazin-4-yl)-8-fluoro-3-[4-(2-hydroxyethoxy)phenyl]isoquinoline dihydrochloride] gave a melting point of 215 to 219 °C.
With `COc1ccc(-c2cc3ccccc3c(N3CCN(C4CC4)CC3)n2)cc1` (as salt: hydrochloride) [Example 239, 1-(1-cyclopropylpiperaziin-4-yl)-3-(4-methoxyphenyl)isoquinoline dihydrochloride], the melting point was 138 to 143 °C.
`C=CCN1CCN(c2nc(-c3ccc(OC)cc3)cc3ccccc23)CC1` (as salt: hydrochloride) [Example 240, 1-(1-allylpiperazin-4-yl)-3-(4-methoxyphenyl)isoquinoline dihydrochloride] showed a melting point of 111 to 116 °C.
In turn, `COc1ccc(-c2cc3ccccc3c(N3CCN(CCO)CC3)n2)cc1` (as salt: hydrochloride) [Example 242, 1-[4-(2-hydroxyethyl)piperazin-1-yl]-3-(4-methoxyphenyl)isoquinoline Dihydrochloride] had a melting point of 163 to 165 °C.
In the case of `CCS(=O)(=O)NCc1ccc(-c2cc3ccccc3c(N3CCN(CCO)CC3)n2)cc1` (as salt: hydrochloride) [Example 243, 3-(4-ethylsulfonylaminomethylphenyl)-1-[4-(2-hydroxyethyl)piperazin-1-yl]isoquinoline Hydrochloride] it was 171 to 174 °C.
The result for `CCN1CCN(c2nc(-c3ccc(OCCO)cc3)cc3cccnc23)CC1` (as salt: hydrochloride) [Example 245, 8-(1-ethylpiperazin-4-yl)-6-[4-(2-hydroxyethoxy)phenyl]-1,7-naphthyridine Dihydrochloride] reads 137 to 143 °C; that for `CCN1CCN(c2nc(-c3ccc(CCCO)cc3)cc3cccnc23)CC1` (as salt: hydrochloride) [Example 247, 8-(1-ethylpiperazin-4-yl)-6-[4-(3-hydroxypropyl)phenyl]-1,7-naphthyridine Dihydrochloride], 119 to 122 °C; that for `CCN1CCN(c2nc(-c3ccc(CCC(C)O)cc3)cc3cccnc23)CC1` (centres unmarked) (as salt: hydrochloride) [Example 248, 8-(1-ethylpiperazin-4-yl)-6-[4-(3-hydroxybutyl)phenyl]-1,7-naphthyridine Dihydrochloride], 118 to 121 °C.
Consider `CCN1CCN(c2nc(-c3ccc(C(F)CCO)cc3)cc3cccnc23)CC1` (centres unmarked) (as salt: hydrochloride) [Example 249, 8-(1-ethylpiperazin-4-yl)-6-[4-(3-hydroxy-1-fluoropropyl)phenyl]-1,7-naphthyridine Dihydrochloride], for which the melting point lay within 123 to 125 °C.
Regarding `CCN1CCN(c2nc(-c3ccc(OCC(C)(C)O)cc3)cc3cccnc23)CC1` (as salt: hydrochloride) [Example 250, 8-(1-ethylpiperazin-4-yl)-6-[4-(2-hydroxy-2-methylpropoxy)phenyl]-1,7-naphthyridine Dihydrochloride], the melting point fell in the range of 127 to 132 °C.
On to `CCN1CCN(c2nc(-c3ccc(OC)cc3)cc3ncccc23)CC1` (as salt: hydrochloride) [Example 252, 5-(1-ethylpiperazin-4-yl)-7-(4-methoxyphenyl)-1,6-naphthyridine Dihydrochloride], for which the melting point is 242 to 245 °C.
The compound `CN1CCN(c2nc(-c3ccc(OCCO)cc3)cc3ccsc23)CC1` (as salt: hydrochloride) [Example 253, 5-[4-(2-hydroxyethoxy)phenyl]-7-(4-methylpiperazin-1-yl)thieno[2,3-c]pyridine Hydrochloride] returned a melting point of 141 to 143 °C.
In the case of `CCN1CCN(c2nc(-c3cccc(OCCO)c3)cc3ccsc23)CC1` (as salt: hydrochloride) [Example 258, 7-(1-ethylpiperazin-4-yl)-5-[3-(2-hydroxyethoxy)phenyl]thieno[2,3-c]pyridine Dihydrochloride], the melting point was 132 to 135 °C.
In turn, `CCN1CCN(c2nc(-c3ccc(OCCO)cc3)cc3ccsc23)CC1` (as salt: hydrochloride) [Example 259, 7-(4-ethylpiperazin-1-yl)-5-(4-hydroxyethoxyphenyl)thieno[2,3-c]pyridine Hydrochloride] showed a melting point of 135 to 136 °C.
On to `CCN1CCN(c2nc(-c3ccc(OCC(C)(C)O)cc3)cc3ccsc23)CC1` (as salt: hydrochloride) [Example 260, 7-(1-Ethylpiperazin-4-yl)-5-[4-(2-hydroxy-2-methylpropoxy)phenyl]thieno[2,3-c]pyridine dihydrochloride], for which the melting point was 137 to 139 °C.
For `CCN1CCN(c2nc(-c3ccc(N4CCOCC4)nc3)cc3ccsc23)CC1` (as salt: hydrochloride) [Example 263, 5-[2-(4-morpholinyl)pyridin-5-yl]-7-(4-ethylpiperazin-1-yl)thieno[2,3-c]pyridine Hydrochloride], the melting point was 182 to 185 °C.
`CCN1CCN(c2nc(-c3ccc(N4CCSCC4)nc3)cc3ccsc23)CC1` (as salt: hydrochloride) [Example 264, 5-[2-(4-thiomorpholinyl)pyridin-5-yl]-7-(4-ethylpiperazine-1-yl)thieno[2,3-c]pyridine Hydrochloride] had a melting point of 201 to 203 °C.
Compound `CCN1CCN(c2nc(-c3ccc(N4CCC(O)CC4)nc3)cc3ccsc23)CC1` (as salt: hydrochloride) [Example 265, 5-[2-(4-hydroxypiperidin-1-yl)pyridin-5-yl]-7-(4-ethylpiperazin-1-yl)thieno[2,3-c]pyridine Hydrochloride] registered a melting point of 208 to 210 °C.
As for `CCN1CCN(c2nc(-c3ccc(C4=CCOCC4)cc3)cc3ccsc23)CC1` (as salt: hydrochloride) [Example 266, 5-[4-(5,6-dihydro-2H-pyran-4-yl)phenyl]-7-(4-ethylpiperazin-1-yl)thieno[2,3-c]pyridine Hydrochloride], the melting point fell in the range of 176 to 179 °C.
With `CCN1CCN(c2nc(-c3ccc(OC(C)COC)nc3)cc3ccsc23)CC1` (centres unmarked) (as salt: hydrochloride) [Example 267, 5-[2-(2-methoxyethoxy-2-methyl)pyridin-5-yl]-7-(4-ethylpiperazin-1-yl)thieno[2,3-c]pyridine Hydrochloride], the melting point is 112 to 114 °C.
In turn, `CCN1CCN(c2nc(-c3ccc(OCCOC)nc3)cc3ccsc23)CC1` (as salt: hydrochloride) [Example 269, 5-[2-(2-methoxyethoxy)pyridin-5-yl]-7-(4-ethylpiperazin-1-yl)-thieno[2,3-c]pyridine hydrochloride] showed a melting point of 116 to 118 °C.
